Calls of active or inactive are those of the source. No cut-off for these calls is given here.
Columns and labels:
[1] = target: T1, Thioredoxin reductase (Homo sapiens) (UniProt Q16881+Q9NNW7+Q86VQ6); assay: Inhibition of TrxR in human SGC7901 cells assessed as JNK phosphorylation at 1200 nM after 48 hrs in presence of NAC by Western blot analysis; type: cell-based
SGC-7901 [2] = assay: Induction of apoptosis in human SGC7901 cells assessed as late apoptotic cells at 1200 nM after 48 hrs in presence of NAC by Annexin V-FITC/propidium iodide staining based flow cytometric analysis (reference value: 2.85%); type: functional
SGC-7901 [3] = assay: Induction of mitochondrial membrane depolarization in human SGC7901 cells assessed as cells with mitochondrial membrane potential loss at 800 nM after 48 hrs by JC-1 staining based flow cytometric analysis (reference value: 9.29%); type: functional
SGC-7901 [4] = assay: Induction of apoptosis in human SGC7901 cells after 48 hrs by Annexin V-FITC/propidium iodide staining based flow cytometric analysis; type: functional, cell-based
SGC-7901 [5] = assay: Induction of mitochondrial membrane depolarization in human SGC7901 cells assessed as cells with intact mitochondrial membrane potential at 1000 nM after 48 hrs in presence of NAC by JC-1 staining based flow cytometric analysis (reference value: 98%); type: functional
SGC-7901 [6] = assay: Cell cycle arrest in human SGC7901 cells assessed as accumulation at G2 phase at 600 nM after 48 hrs by propidium iodide staining based flow cytometric analysis (reference value: 18.77%); type: functional
SGC-7901 [7] = assay: Induction of apoptosis in human SGC7901 cells assessed as viable cells at 1000 nM after 48 hrs in presence of NAC by Annexin V-FITC/propidium iodide staining based flow cytometric analysis (reference value: 96%); type: functional; settings: SGC-7901, 48 h, read-out: Activity
SGC-7901 [8] = assay: Cell cycle arrest in human SGC7901 cells assessed as accumulation at G1 phase at 1000 nM after 48 hrs by propidium iodide staining based flow cytometric analysis (reference value: 47.93%); type: functional
SMMC-7721 = assay: Antiproliferative activity against human SMMC7721 cells after 48 hrs by MTT assay; type: functional, cell-based; settings: SMMC-7721, 48 h
[9] = target: T1, Thioredoxin reductase (Homo sapiens); assay: Inhibition of TrxR in human SGC7901 cells assessed as p38 phosphorylation at 1200 nM after 48 hrs in presence of NAC by Western blot analysis; type: cell-based
SGC-7901 [10] = assay: Induction of apoptosis in human SGC7901 cells assessed as late apoptotic cells at 800 nM after 48 hrs by Annexin V-FITC/propidium iodide staining based flow cytometric analysis (reference value: 1.73%); type: functional
MGC-803 = assay: Antiproliferative activity against human MGC803 cells after 48 hrs by MTT assay; type: functional, cell-based; settings: MGC-803, 48 h
SGC-7901 [11] = assay: Induction of apoptosis in human SGC7901 cells assessed as late apoptotic cells at 1200 nM after 48 hrs by Annexin V-FITC/propidium iodide staining based flow cytometric analysis (reference value: 1.73 to 2.85%); type: functional
SGC-7901 [12] = assay: Cell cycle arrest in human SGC7901 cells assessed as accumulation at G2 phase at 1000 nM after 48 hrs by propidium iodide staining based flow cytometric analysis (reference value: 18.77%); type: functional
SGC-7901 [13] = assay: Induction of apoptosis in human SGC7901 cells assessed as necrotic cells at 1200 nM after 48 hrs in presence of NAC by Annexin V-FITC/propidium iodide staining based flow cytometric analysis (reference value: 0.304%); type: functional
SGC-7901 [14] = assay: Cell cycle arrest in human SGC7901 cells assessed as accumulation at G1 phase at 1200 nM after 48 hrs by propidium iodide staining based flow cytometric analysis (reference value: 47.93%); type: functional
SGC-7901 [15] = assay: Induction of mitochondrial membrane depolarization in human SGC7901 cells assessed as cells with mitochondrial membrane potential loss at 1000 nM after 48 hrs by JC-1 staining based flow cytometric analysis (reference value: 9.29%); type: functional
SGC-7901 [16] = assay: Induction of mitochondrial membrane depolarization in human SGC7901 cells assessed as cells with intact mitochondrial membrane potential at 1000 nM after 48 hrs by JC-1 staining based flow cytometric analysis (reference value: 87.3%); type: functional
SGC-7901 [17] = assay: Induction of apoptosis in human SGC7901 cells assessed as increase in Bax to Bcl-2 ratio level at 1200 nM after 48 hrs in presence of NAC by Western blot analysis; type: functional, cell-based
SGC-7901 [18] = assay: Induction of apoptosis in human SGC7901 cells assessed as necrotic cells at 600 nM after 48 hrs by Annexin V-FITC/propidium iodide staining based flow cytometric analysis (reference value: 0.052%); type: functional
SGC-7901 [19] = assay: Induction of apoptosis in human SGC7901 cells assessed as early apoptotic cells at 1200 nM after 48 hrs by Annexin V-FITC/propidium iodide staining based flow cytometric analysis (reference value: 0.851 to 2.30%); type: functional
SGC-7901 [20] = assay: Induction of mitochondrial membrane depolarization in human SGC7901 cells assessed as cells with mitochondrial membrane potential loss at 1200 nM after 48 hrs by JC-1 staining based flow cytometric analysis (reference value: 1.65 to 9.29%); type: functional
SGC-7901 [21] = assay: Cell cycle arrest in human SGC7901 cells assessed as accumulation at G2 phase at 800 nM after 48 hrs by propidium iodide staining based flow cytometric analysis (reference value: 18.77%); type: functional
SGC-7901 [22] = assay: Cell cycle arrest in human SGC7901 cells assessed as accumulation at G2 phase at 1200 nM after 48 hrs by propidium iodide staining based flow cytometric analysis (reference value: 18.77%); type: functional
SGC-7901 [23] = assay: Induction of mitochondrial membrane depolarization in human SGC7901 cells assessed as cells with mitochondrial membrane potential loss at 1200 nM after 48 hrs in presence of NAC by JC-1 staining based flow cytometric analysis (reference value: 1.65%); type: functional
[24] = target: T1, Thioredoxin reductase (Homo sapiens); assay: Inhibition of TrxR in human SGC7901 cells assessed as JNK phosphorylation at 600 to 1200 nM after 48 hrs by Western blot analysis; type: cell-based

COc1cc(OC)c2c(=O)c(OCCCOc3ccccc3/C=C/C(=O)/C=C/c3ccccn3)c(-c3cc(OC)c(OC)c(OC)c3)oc2c1
inhibition [1]: inactive
Activity (SGC-7901 [2]): 21.2%
Activity (SGC-7901 [3]): 21.2%
Activity (SGC-7901 [4]): Dose-dependent effect
Activity (SGC-7901 [5]): 97.3%
Activity (SGC-7901 [6]): 15.61%
viability at 1 µM (SGC-7901 [7]): 94.1%
Activity (SGC-7901 [8]): 55.28%
IC50 (SMMC-7721): 3180 nM
inhibition [9]: inactive
Activity (SGC-7901 [10]): 8.3%
IC50 (MGC-803): 560 nM
Activity (SGC-7901 [11]): 20.1 - 24.9%
Activity (SGC-7901 [12]): 10.44%
Activity (SGC-7901 [13]): 0.225%
Activity (SGC-7901 [14]): 45.78%
Activity (SGC-7901 [15]): 39.9%
Activity (SGC-7901 [16]): 56.3%
Activity (SGC-7901 [17]): inactive
Activity (SGC-7901 [18]): 0.132%
Activity (SGC-7901 [19]): 29.8 - 55.2%
Activity (SGC-7901 [20]): 55.4 - 63.7%
Activity (SGC-7901 [21]): 13.48%
Activity (SGC-7901 [22]): 17.95%
Activity (SGC-7901 [23]): 1.74%
inhibition [24]: Active

Reference: ChEMBL document CHEMBL4270560, “Novel curcumin analogue hybrids: Synthesis and anticancer activity” (Eur J Med Chem, 2018)
